Source: publication PMC4444576, “Prospective performance evaluation of selected common virtual screening tools. Case study: Cyclooxygenase (COX) 1 and 2” (European Journal of Medicinal Chemistry, 2015)
Like-named read-outs stand apart in the source and are kept apart here. Values belong to the compound of their own block, whether it stands above or below them.

Legend:
COX [1] = settings: cited from earlier work; for Activity: data from the literature
COX [2] = test system: COX; parameters: method as in PMID 22053353; settings: read-out: IC50, oxidation of endocannabinoids; cited from earlier work
COX [3] = assay: Biological testing for COX-inhibiting activity, overall outcome on both isoforms; assay type: biochemical; settings: for COX isoform selectivity: COX-1 versus COX-2; for Activity: biological testing of this study
[4] = target: T1, ram seminal vesicle COX-1 (Ovis aries, UniProt P05979); assay: COX-1 inhibition assay (PGE2 EIA); assay type: biochemical; settings: for inhibition at 20 µM: read-out: % inhibition at 20µM, COX-1
T1 construct: ram seminal vesicle COX-1 (1 U) (Sigma–Aldrich); purchased Sigma–Aldrich; host or cells: ram seminal vesicle (tissue of origin)
T1 sequence (P05979 25-600): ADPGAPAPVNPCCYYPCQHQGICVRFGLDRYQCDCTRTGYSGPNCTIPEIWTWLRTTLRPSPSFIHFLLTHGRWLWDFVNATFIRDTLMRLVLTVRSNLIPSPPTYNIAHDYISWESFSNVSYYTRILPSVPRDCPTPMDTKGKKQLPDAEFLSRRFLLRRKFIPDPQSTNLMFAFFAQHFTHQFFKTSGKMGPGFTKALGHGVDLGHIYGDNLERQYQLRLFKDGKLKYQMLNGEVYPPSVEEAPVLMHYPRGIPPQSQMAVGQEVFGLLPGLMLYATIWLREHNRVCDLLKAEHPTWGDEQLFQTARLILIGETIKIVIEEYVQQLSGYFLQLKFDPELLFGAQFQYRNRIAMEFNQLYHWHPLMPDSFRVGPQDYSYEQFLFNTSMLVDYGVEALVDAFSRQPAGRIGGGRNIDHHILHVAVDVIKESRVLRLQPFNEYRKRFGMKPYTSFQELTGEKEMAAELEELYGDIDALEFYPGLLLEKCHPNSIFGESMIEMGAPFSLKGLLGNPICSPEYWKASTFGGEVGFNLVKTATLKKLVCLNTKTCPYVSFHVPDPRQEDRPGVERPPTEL

U937 cells = test system: U937 cells; parameters: method as in PMID 19958764; settings: stimulated differentiated U937 cells; cited from earlier work
human recombinant COX-2 = target: T2, human recombinant COX-2 (Homo sapiens, UniProt P35354); assay: COX-2 inhibition assay (PGE2 EIA); assay type: biochemical; settings: for inhibition at 20 µM: read-out: % inhibition at 20µM, COX-2
T2 construct: purchased Sigma–Aldrich
T2 sequence (P35354 18-604): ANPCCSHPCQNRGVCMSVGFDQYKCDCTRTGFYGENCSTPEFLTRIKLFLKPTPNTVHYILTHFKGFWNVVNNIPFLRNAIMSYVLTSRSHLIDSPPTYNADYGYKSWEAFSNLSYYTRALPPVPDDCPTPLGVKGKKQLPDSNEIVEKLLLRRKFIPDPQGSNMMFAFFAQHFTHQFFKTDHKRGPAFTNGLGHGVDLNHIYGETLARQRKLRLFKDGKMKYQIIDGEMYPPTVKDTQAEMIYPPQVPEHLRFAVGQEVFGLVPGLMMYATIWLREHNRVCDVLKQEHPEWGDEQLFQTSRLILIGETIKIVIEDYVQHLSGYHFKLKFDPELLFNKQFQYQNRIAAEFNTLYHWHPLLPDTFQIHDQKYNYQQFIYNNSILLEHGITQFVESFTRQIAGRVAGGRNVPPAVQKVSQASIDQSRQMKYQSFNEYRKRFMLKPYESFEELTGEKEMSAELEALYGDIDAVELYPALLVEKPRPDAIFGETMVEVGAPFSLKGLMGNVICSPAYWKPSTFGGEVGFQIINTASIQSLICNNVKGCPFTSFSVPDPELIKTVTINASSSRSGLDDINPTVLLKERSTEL

mice and rats = test system: mice and rats; parameters: method as in earlier work; settings: ref 1 (Supporting Information), cited from earlier work
[5] = average of at least two independent experiments, triplicates, read-out: IC50 COX-1
[6] = average of at least two independent experiments, triplicates, read-out: IC50 COX-2

Structure (SMILES): O=C(O)c1cc(/N=N/c2ccc(S(=O)(=O)Nc3ccccn3)cc2)ccc1O [Sulfasalazin]
COX-inhibition (COX [1]; no IC50 available): Evidence for COX-inhibition

Structure (SMILES): CC(C)Cc1ccc([C@@H](C)C(=O)O)cc1 [(R)-ibuprofen]
IC50 (COX [2]): ~10 µM | PGE2 formation from AA (COX [1]): only inhibited at high concentrations | Activity (COX [1]): Active [60]

Structure (SMILES): COc1ccc2cc3[n+](cc2c1OC)CCc1cc2c(cc1-3)OCO2 [Berberin]
Activity (COX [1]): Inactive [50] | Activity (COX [1]; listed as Berberine): not by direct inhibition of the enzyme

Structure (SMILES): CC(C(=O)O)c1ccc(C(=O)c2ccccc2)s1 (centres unmarked) [Tiaprofenic acid]
Activity (COX [1]): Active [55]

Structure (SMILES): O=C(O)CCC(=O)c1ccc(-c2ccccc2)cc1 [Fenbufen]
Activity (COX [1]): Active [52]

Structure (SMILES): CC(C(=O)O)c1ccc(N2CC=CC2)c(Cl)c1 (centres unmarked) [Pirprofen]
Activity (COX [1]): Active [59]

Structure (SMILES): CC(C(=O)O)c1ccc2c(c1)[nH]c1ccc(Cl)cc12 (centres unmarked) [Carprofen]
Activity (COX [1]): Active [51]

Structure (SMILES): Cc1cccc(Nc2ccccc2C(=O)O)c1C [Mefenamic acid]
Activity (COX [1]): Active [58]

Structure (SMILES): CC(C)Cc1ccc([C@H](C)C(=O)O)cc1 [(S)-ibuprofen]
Activity (COX [1]): Active [61]

Structure (SMILES): COc1ccc2c(c1)c(CC(=O)O)c(C)n2C(=O)c1ccc(Cl)cc1 [Indometacin]
Activity (COX [1]): Active [54]

Structure (SMILES): COc1ccc(C(Cl)=C(c2ccc(OC)cc2)c2ccc(OC)cc2)cc1 [chlorotrianisene]
COX inhibition (COX [1]; identified by SEA): COX-inhibitor

Structure (SMILES): CC(C(=O)O)c1cccc(C(=O)c2ccccc2)c1 (centres unmarked) [Ketoprofen]
Activity (COX [1]): Active [56]

Structure (SMILES): Cc1c(Nc2ncccc2C(=O)O)cccc1C(F)(F)F [Flunixin meglumine]
Activity (COX [1]): Active [53]

IC50 [4, 5]: 1.5 ± 2.1 µM | IC50 (human recombinant COX-2; [6]): > 20 µM
Structure (SMILES): COc1cc(/C=C2\CCC/C(=C\c3ccc(O)c(OC)c3)C2=O)ccc1O [Cyqualon (3), Cyqualon]
COX isoform selectivity (COX [3]): COX-1 selective | Activity (COX [3]): Active | PGE2-formation (U937 cells): did not prevent PGE2-formation

IC50 [4, 5]: 33 ± 7.3 µM | IC50 (human recombinant COX-2; [6]): > 20 µM
Structure (SMILES): CCC(c1ccc(O)c(F)c1)C(C)c1ccc(O)c(F)c1 (centres unmarked) [Bifluranol (1), Bifluranol]
anti-prostatic effects (mice and rats; mice and rats, compared to DES): comparable extent to diethylstilbestrol (DES) | estrogenicity, lower compared to DES (mice and rats): approximately 8 fold | spermatogenesis or fertility (mice and rats; unlike DES): did not impair spermatogenesis or fertility | COX isoform selectivity (COX [3]): COX-1 selective | Activity (COX [3]): Active

Structure (SMILES): CC(C(=O)O)c1ccc(N2Cc3ccccc3C2=O)cc1 (centres unmarked) [Indoprofen]
Activity (COX [1]): Active [55]

inhibition at 20 µM ([4]; triplicates): -2.1 ± 16.4% | inhibition at 20 µM (human recombinant COX-2; triplicates): -0.7 ± 6.4%
Structure (SMILES): O=S(O)CNc1ccc(S(=O)(=O)c2ccc(NCS(=O)O)cc2)cc1 [Sulfoxone]
Activity (COX [3]): Inactive

Structure (SMILES): Cc1ccc(Cl)c(Nc2ccccc2C(=O)O)c1Cl [Meclofenamic acid]
Activity (COX [1]): Active [57]

inhibition at 20 µM ([4]; triplicates): -9.9 ± 25.6% | inhibition at 20 µM (human recombinant COX-2; triplicates): -1.1 ± 4.7%
Structure (SMILES): NS(=O)(=O)c1cc(-c2nnn[nH]2)c(NCc2cccs2)cc1Cl [Azosemide]
Activity (COX [3]): Inactive

inhibition at 20 µM ([4]; triplicates): -6.2 ± 6.1% | inhibition at 20 µM (human recombinant COX-2; triplicates): 18.4 ± 6.1%
Structure (SMILES): O=C(O)COc1ccc(C(=O)c2cccs2)c(Cl)c1Cl [Ticrynafen]
Activity (COX [3]): Inactive

% inhibition at 20µM, COX-1 ([4]; triplicates): 13.6 ± 14.4% | % inhibition at 20µM, COX-2 (human recombinant COX-2; triplicates): 2.9 ± 7.3%
Structure (SMILES): [Cl-].c1ccc(-c2nn(-c3ccccc3)[n+](-c3ccccc3)n2)cc1 [Triphenyltetrazol]
Activity (COX [3]): Inactive

Structure (SMILES): CNC(=O)Oc1ccc(-c2ccccc2)cc1 [Paxamate (4), Paxamate]
COX isoform selectivity (COX [3]): COX-1 selective | Activity (COX [3]): Active | IC50 [4]: 17.1 ± 3.1 µM | IC50 (human recombinant COX-2): > 20 µM

inhibition at 20 µM ([4]; triplicates): 8.3 ± 21% | inhibition at 20 µM (human recombinant COX-2; triplicates): -11 ± 29.4%
Structure (SMILES): O=S(=O)(O)Oc1ccc(C(c2ccc(OS(=O)(=O)O)cc2)c2ccccn2)cc1 [Picosulfate sodium]
Activity (COX [3]): Inactive

Structure (SMILES): C=CCOc1ccc(CC(=O)O)cc1Cl [Alclofenac]
Activity (COX [1]): Active [40]

Structure (SMILES): CC(=O)Nc1ccc(-c2ccccc2)cc1 [p-phenylacetanilide]
Activity (COX [3]): Inactive | % inhibition at 20µM, COX-1 ([4]; triplicates): 5.8 ± 18.3% | % inhibition at 20µM, COX-2 (human recombinant COX-2; triplicates): -1.6 ± 8.3%

inhibition at 20 µM ([4]; triplicates): 29.1 ± 9.7% | inhibition at 20 µM (human recombinant COX-2; triplicates): 26 ± 5%
Structure (SMILES): CC/C(=C(/CC)c1ccc(OP(=O)(O)O)cc1)c1ccc(OP(=O)(O)O)cc1 [Fosfestrol]
Activity (COX [3]): Inactive

inhibition at 20 µM ([4]; triplicates): 0.4 ± 16.7% | inhibition at 20 µM (human recombinant COX-2; triplicates): -5.2 ± 11.6%
Structure (SMILES): C#C[C@]1(O)CC[C@H]2[C@@H]3CCc4cc(O)ccc4[C@H]3CC[C@@]21C [17α-ethinylestradiol]
Activity (COX [3]): Inactive
